Experimental data taken from patent publication US20260356851A1, “TRICYCLIC COMPOUNDS AND USES THEREOF” (HUTCHMED LIMITED, priority 2023, published 2026).

Legend:
Type in all cases: cell-based
[1] = target: T1, pERK1/2 (Thr202/Tyr204), PANC-1 (KRAS G121D) (Homo sapiens, UniProt P01116, G12D); assay: Assay of intracellular pERK1/2 (Thr202/Tyr204) phosphorylation in PANC-1 cells (KRAS G12D); conditions: pERK1/2, 2 days, read-out: PANC-1 (KRAS G12D) IC50
T1 construct: pERK1/2 HTRF read-out
Outline: (§1)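 Cells (10000-12000/well) exposed to 3-fold compound dilutions for 2 days at 37 °C, then lysed; pERK1/2 (Thr202/Tyr204) measured by HTRF with d2 and cryptate antibodies, 665/615 nm ratio.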

[2] = target: T2, pERK1/2 (Thr202/Tyr204), NCI-1H441 (KRAS G12V) (Homo sapiens, UniProt P01116, G12V); assay: Assay of intracellular pERK1/2 (Thr202/Tyr204) phosphorylation in NCI-H441 cells (KRAS G12V); conditions: pERK1/2, 2 days, read-out: NCI-H441 (KRAS G12V) IC50
T2 construct: pERK1/2 HTRF read-out
T2 sequence (P01116 1-188 isoform P01116-2 G12V): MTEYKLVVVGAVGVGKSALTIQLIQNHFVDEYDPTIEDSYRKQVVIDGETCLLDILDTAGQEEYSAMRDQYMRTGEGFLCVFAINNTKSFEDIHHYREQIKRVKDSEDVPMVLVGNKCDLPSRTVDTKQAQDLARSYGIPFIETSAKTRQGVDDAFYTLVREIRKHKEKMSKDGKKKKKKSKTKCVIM
Outline: as §1

[3] = target: T3, pERK1/2 (Thr202/Tyr204), NCI-1H358 (KRAS G12C) (Homo sapiens, UniProt P01116, G12C); assay: Assay of intracellular pERK1/2 (Thr202/Tyr204) phosphorylation in NCI-H358 cells (KRAS G12C); conditions: pERK1/2, 2 days, read-out: NCI-H358 (KRAS G12C) IC50
T3 construct: pERK1/2 HTRF read-out
T3 sequence (P01116 1-188 isoform P01116-2 G12C): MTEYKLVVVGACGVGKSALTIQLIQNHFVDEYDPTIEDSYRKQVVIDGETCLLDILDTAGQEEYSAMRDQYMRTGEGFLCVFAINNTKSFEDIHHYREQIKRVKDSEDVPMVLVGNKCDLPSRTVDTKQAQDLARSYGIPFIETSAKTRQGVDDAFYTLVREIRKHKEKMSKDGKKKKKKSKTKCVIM
Outline: as §1

T1 sequence (P01116 1-188 isoform P01116-2 G12D): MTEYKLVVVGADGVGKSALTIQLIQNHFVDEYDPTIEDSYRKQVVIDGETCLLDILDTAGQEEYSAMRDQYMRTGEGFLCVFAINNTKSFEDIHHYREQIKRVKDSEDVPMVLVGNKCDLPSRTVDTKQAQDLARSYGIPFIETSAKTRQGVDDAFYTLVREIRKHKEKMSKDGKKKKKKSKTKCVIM

IC50 [1] | IC50 [2] | IC50 [3] | Structure (SMILES)
1 nM | 0.3 nM | 0.1 nM | [2H]C1([2H])CC[C@@]2(C([2H])([2H])Oc3nc4c5c(nc(-c6cc(N)c(F)c(C)c6C(F)(F)F)c(F)c5n3)OCCN4C(C)c3cccnc3N)C[C@@H](F)CN12 (single isomer, unassigned) [Compound 124, 3-((R or S)-1-(5-(5-amino-4-fluoro-3-methyl-2-(trifluoromethyl)phenyl)-4-fluoro-2-(((2R,7aS)-2-fluorotetrahydro-1H-pyrrolizin-7a(5H)-yl-5,5-d2)methoxy-d2)-8,9-dihydro-10H-7-oxa-1,3,6,10-tetraazacyclohepta[de]naphthalen-10-yl)ethyl)pyridin-2-amine]
57 nM | 40 nM | 12 nM | [2H]C1([2H])CC[C@@]2(C([2H])([2H])Oc3nc4c5c(nc(-c6cc(N)c(F)c(C)c6C(F)(F)F)c(F)c5n3)OCCN4[C@@H](C)c3cccnc3N)C[C@@H](F)CN12 (single isomer, unassigned) [Compound 125, 3-((R or S)-1-(5-(5-amino-4-fluoro-3-methyl-2-(trifluoromehtyl)phenyl)-4-fluoro-2-(((2R,7aS)-2-fluorotetrahydro-1H-pyrrolizin-7a(5H)-yl-5,5-d2)methoxy-d2)-8,9-dihydro-10H-7-oxa-1,3,6,10-tetraazacyclohepta[de]naphthalen-10-yl)ethyl)pyridin-2-amine]
> 100 nM | > 100 nM | > 100 nM | Cc1cc(N)cc(-c2nc3c4c(nc(OC[C@@]56CCCN5C[C@H](F)C6)nc4c2F)N(C(C)c2cccnn2)CCO3)c1C(F)(F)F (single isomer, unassigned) [Compound 127, 3-(4-fluoro-2-(((2R,7aS)-2-fluorotetrahydro-1H-pyrrolizin-7a(5H)-yl)methoxy)-10-((R or S)-1-(pyridazin-3-yl)ethyl)-9,10-dihydro-8H-7-oxa-1,3,6,10-tetraazacyclohepta[de]naphthalen-5-yl)-5-methyl-4-(trifluoromethyl)aniline]
> 100 nM | > 100 nM | > 100 nM | [2H]C1([2H])CC[C@@]2(C([2H])([2H])Oc3nc4c5c(nc(-c6cc(O)cc(Cl)c6C6CC6)c(F)c5n3)OCCN4[C@H](C)c3cccnc3N)C[C@@H](F)CN12 (single isomer, unassigned) [Compound 130, 3-(10-((R or S)-1-(2-aminopyridin-3-yl)ethyl)-4-fluoro-2-(((2R,7aS)-2-fluorotetrahydro-1H-pyrrolizin-7a(5H)-yl-5,5-d2)methoxy-d2)-9,10-dihydro-8H-7-oxa-1,3,6,10-tetraazacyclohepta[de]naphthalen-5-yl)-5-chloro-4-cyclopropylphenyl]
7 nM | 1 nM | 0.5 nM | [2H]C1([2H])CC[C@@]2(C([2H])([2H])Oc3nc4c5c(nc(-c6cc(O)cc(Cl)c6C6CC6)c(F)c5n3)OCCN4C(C)c3cccnc3N)C[C@@H](F)CN12 (single isomer, unassigned) [Compound 131, 3-(10-((R or S)-1-(2-aminopyridin-3-yl)ethyl)-4-fluoro-2-(((2R,7aS)-2-fluorotetrahydro-1H-pyrrolizin-7a(5H)-yl-5,5-d2)methoxy-d2)-9,10-dihydro-8H-7-oxa-1,3,6,10-tetraazacyclohepta[de]naphthalen-5-yl)-5-chloro-4-cyclopropylphenol]
14 nM | 1 nM | 0.4 nM | [2H]C([2H])(Oc1nc2c3c(nc(-c4cc(N)cc(C)c4C(F)(F)F)c(F)c3n1)OCCN2C(C)c1cccnc1N)[C@@H]1C[C@@H](F)CN1C([2H])([2H])[2H] (single isomer, unassigned) [Compound 132, 3-((R or S)-1-(5-(5-amino-3-methyl-2-(trifluoromethyl)phenyl)-4-fluoro-2-(((2S,4R)-4-fluoro-1-(methyl-d3)pyrrolidin-2-yl)methoxy-d2)-8,9-dihydro-10H-7-oxa-1,3,6,10-tetraazacyclohepta[de]naphthalen-10-yl)ethyl)pyridin-2-amine]
> 100 nM | 10 nM | 3 nM | [2H]C([2H])(Oc1nc2c3c(nc(-c4cc(N)cc(C)c4C(F)(F)F)c(F)c3n1)OCCN2C(C)c1cccnc1N)[C@@H]1C[C@@H](F)CN1C([2H])([2H])[2H] (single isomer, unassigned) [Compound 133, 3-((R or S)-1-(5-(5-amino-3-methyl-2-(trifluoromethyl)phenyl)-4-fluoro-2-(((2S,4R)-4-fluoro-1-(methyl-d3)pyrrolidin-2-yl)methoxy-d2)-8,9-dihydro-10H-7-oxa-1,3,6,10-tetraazacyclohepta[de]naphthalen-10-yl)ethyl)pyridin-2-amine]
0.9 nM | 0.2 nM | 0.1 nM | Cc1c(F)c(N)cc(-c2nc3c4c(nc(OC[C@@]56CCCN5C[C@H](F)C6)nc4c2F)N([C@H](C)c2cccnc2N)CCO3)c1C(F)(F)F (single isomer, unassigned) [Compound 137]
30 nM | 17 nM | 13 nM | Cc1c(F)c(N)cc(-c2nc3c4c(nc(OC[C@@]56CCCN5C[C@H](F)C6)nc4c2F)N(C(C)c2cccnc2N)CCO3)c1C(F)(F)F (single isomer, unassigned) [Compound 138, 3-((R or S)-1-(5-(5-amino-4-fluoro-3-methyl-2-(trifluoromethyl)phenyl)-4-fluoro-2-(((2R,7aS)-2-fluorotetrahydro-1H-pyrrolizin-7a(5H)-yl)methoxy)-8,9-dihydro-10H-7-oxa-1,3,6,10-tetraazacyclohepta[de]naphthalen-10-yl)ethyl)pyridin-2-amine]
> 100 nM | > 100 nM | > 100 nM | [2H]C([2H])(Oc1nc2c3c(nc(-c4cc(O)cc(Cl)c4C4CC4)c(F)c3n1)OCCN2[C@H](C)c1cccnc1N)[C@@H]1C[C@@H](F)CN1C([2H])([2H])[2H] (single isomer, unassigned) [Compound 142, 3-(10-((R or S)-1-(2-aminopyridin-3-yl)ethyl)-4-fluoro-2-(((2S,4R)-4-fluoro-1-(methyl-d3)pyrrolidin-2-yl)methoxy-d2)-9,10-dihydro-8H-7-oxa-1,3,6,10-tetraazacyclohepta[de]naphthalen-5-yl)-5-chloro-4-cyclopropylphenyl]
21 nM | 2 nM | 0.5 nM | [2H]C([2H])(Oc1nc2c3c(nc(-c4cc(O)cc(Cl)c4C4CC4)c(F)c3n1)OCCN2[C@@H](C)c1cccnc1N)[C@@H]1C[C@@H](F)CN1C([2H])([2H])[2H] (single isomer, unassigned) [Compound 143, 3-(10-((R or S)-1-(2-aminopyridin-3-yl)ethyl)-4-fluoro-2-(((2S,4)-4-fluoro-1-(methyl-d3)pyrrolidin-2-yl)methoxy-d2)-9,10-dihydro-8H-7-oxa-1,3,6,10-tetraazacyclohepta[de]naphthalen-5-yl)-5-chloro-4-cyclopropylphenol]
17 nM | 2 nM | 0.4 nM | CC(c1cccnc1N)N1CCOc2nc(-c3cc(N)c(F)cc3C(F)(F)F)c(F)c3nc(OC[C@@]45CCCN4C[C@H](F)C5)nc1c23 (single isomer, unassigned) [Compound 144, 3-((R or S)-1-(5-(5-amino-4-fluoro-2-(trifluoromethyl)phenyl)-4-fluoro-2-(((2R,7aS)-2-fluorotetrahydro-1H-pyrrolizin-7a(5H)-yl)methoxy)-8,9-dihydro-10H-7-oxa-1,3,6,10-tetraazacyclohepta[de]naphthalen-10-yl)ethyl)pyridin-2-amine]
> 100 nM | 51 nM | 14 nM | CC(c1cccnc1N)N1CCOc2nc(-c3cc(N)c(F)cc3C(F)(F)F)c(F)c3nc(OC[C@@]45CCCN4C[C@H](F)C5)nc1c23 (single isomer, unassigned) [Compound 145, 3-((R or S)-1-(5-(5-amino-4-fluoro-2-(trifluoromethyl)phenyl)-4-fluoro-2-(((2R,7aS)-2-fluorotetrahydro-1H-pyrrolizin-7a(5H)-yl)methoxy)-8,9-dihydro-10H-7-oxa-1,3,6,10-tetraazacyclohepta[de]naphthalen-10-yl)ethyl)pyridin-2-amine]
2 nM | 0.5 nM | 0.2 nM | [2H]C1([2H])CN(C(C)c2cccnc2N)c2nc(OC[C@@]34CCCN3C[C@H](F)C4)nc3c(F)c(-c4cc(N)cc(C)c4C(F)(F)F)nc(c23)O1 (single isomer, unassigned) [Compound 153, 3-((R or S)-1-(5-(5-amino-3-methyl-2-(trifluoromethyl)phenyl)-4-fluoro-2-(((2R,7aS)-2-fluorotetrahydro-1H-pyrrolizin-7a(5H)-yl)methoxy)-8,9-dihydro-10H-7-oxa-1,3,6,10-tetraazacyclohepta[de]naphthalen-10-yl-8,8-d2)ethyl)pyridin-2-amine]
> 100 nM | 31 nM | 21 nM | [2H]C1([2H])CN(C(C)c2cccnc2N)c2nc(OC[C@@]34CCCN3C[C@H](F)C4)nc3c(F)c(-c4cc(N)cc(C)c4C(F)(F)F)nc(c23)O1 (single isomer, unassigned) [Compound 154, 3-((R or S)-1-(5-(5-amino-3-methyl-2-(trifluoromethyl)phenyl)-4-fluoro-2-(((2R,7aS)-2-fluorotetrahydro-1H-pyrrolizin-7a(5H)-yl)methoxy)-8,9-dihydro-10H-7-oxa-1,3,6,10-tetraazacyclohepta[de]naphthalen-10-yl-8,8-d2)ethyl)pyridin-2-amine]
